Measured values taken from patent publication US8119630B2 (Arrow Therapeutics Limited, priority 2002, dated 2012).
Read-outs that look alike come from different tables or passages of the source.

Columns and labels:
[1] = system: Vero cells; experiment: Simultaneous toxicity investigation (XTT), Vero cells; assay type: cell-based; set-up: unit not given here
Method: (§1) The inner 60 wells of 96 well tissue culture plates were seeded with Vero cells at 3×10^4 cells/well (1×10^4 cells/well for toxicity studies) in 100 or 150 μl of medium and incubated at 37° C. overnight or until nearing confluency. For primary screen, 25 μl compounds were added directly to 100 μl medium in single wells to duplicate plates. A third plate was prepared for simultaneous toxicity investigation.
(§2) For follow-up investigation, 70 μl of compound in duplicate wells were added directly to culture medium at 3.2× final concentration and ½ log serially diluted down columns of plate. A duplicate plate was prepared for simultaneous toxicity investigation.
Cells were infected with 25 μl RSV to give m.o.i.≈0.2. […] Some 0.25 μl/ml PMS were added to stock XTT solution, final conc. […]. Then 25 μl warmed XTT/PMS solution were added to each well and incubated for 5 hours at 37° C. Plates were shaken (DynaTech Vari-Shaker) vigorously for 10 mins and allowed to cool for 15 mins before sealing. Absorbance at 450 nm was measured and data analysed using Microsoft Excel software.

[2] = system: RSV; experiment: XTT assay, RSV-infected Vero cells; assay type: cell-based, Respiratory Syncytial Virus (RSV); conditions: Vero cells infected with RSV, m.o.i.≈0.2, 6 days at 33° C.
Method: Examples 1 to 74 and 83 to 124 were tested using the following protocol.
as §1, §2
Cells were infected with 25 μl RSV to give m.o.i.≈0.2. Some 100 μl of sterile distilled water were added to the outer wells of the plate and incubated at 33° C. for 6 days. Some 0.25 μl/ml PMS were added to stock XTT solution, final conc. […]. Then 25 μl warmed XTT/PMS solution were added to each well and incubated for 5 hours at 37° C. Plates were shaken (DynaTech Vari-Shaker) vigorously for 10 mins and allowed to cool for 15 mins before sealing. Absorbance at 450 nm was measured and data analysed using Microsoft Excel software.
Maximum OD450nm reading (uninfected, untreated control cells) corresponded to 100% inhibition. Minimum OD450nm readings (infected control cells) corresponded to 0% inhibition. Log 10 concentration was plotted against OD450nm and IC50 (Table 1) values were calculated from either reading 50% value from graph or using regression analysis.

[3] = human respiratory syncytial virus, Vero, 144 h, read-out: XTT IC50 (uM), Table 1

Row | Compound | IC50 [2, 3] | also measured
1 | 1-(2-Chloro-6-methyl-phenyl)-3-(2-oxo-5-phenyl-2,3-dihydro-1H-benzo[e][1,4]diazepin-3-yl)-urea [Example 121] |  | TC50 (2d) ([1]; Table 2, Examples 83 to 124, 2d): 60; TC50 (6d) ([1]; Table 2, Examples 83 to 124, 6d): 60; IC50 ([2]; Table 2, Examples 83 to 124, read-out: XTT IC50): 4 µM
2 | O=C1Nc2ccccc2C(c2ccccc2)=NC1NCc1ccccc1[N+](=O)[O-] (stereo not drawn) [Example 42, 3-(2-Nitro-benzylamino)-5-phenyl-1,3-dihydro-benzo[e][1,4]diazepin-2-one] | 20 µM | 
3 | O=C1Nc2ccccc2C(c2ccccc2)=NC1NCc1cccc([N+](=O)[O-])c1 (stereo not drawn) [Example 43, 3-(3-Nitro-benzylamino)-5-phenyl-1,3-dihydro-benzo[e][1,4]diazepin-2-one] | 30 µM | 
4 | O=C1Nc2ccccc2C(c2ccccc2)=NC1NCc1ccc([N+](=O)[O-])cc1 (stereo not drawn) [Example 44, 3-(4-Nitro-benzylamino)-5-phenyl-1,3-dihydro-benzo[e][1,4]diazepin-2-one] | 10 µM | 
5 | COc1ccccc1CNC1N=C(c2ccccc2)c2ccccc2NC1=O (stereo not drawn) [Example 45, 3-(2-Methoxy-benzylamino)-5-phenyl-1,3-dihydro-benzo[e][1,4]diazepin-2-one] | 20 µM | 
6 | COc1cccc(CNC2N=C(c3ccccc3)c3ccccc3NC2=O)c1 (stereo not drawn) [Example 46, 3-(3-Methoxy-benzylamino)-5-phenyl-1,3-dihydro-benzo[e][1,4]diazepin-2-one] | 30 µM | 
7 | O=C1Nc2ccccc2C(c2ccccc2)=NC1NCc1ccccc1C(F)(F)F (stereo not drawn) [Example 47, 5-Phenyl-3-(2-trifluoromethyl-benzylamino) 1,3-dihydro-benzo[e][1,4]diazepin-2-one] | 30 µM | 
8 | O=C1Nc2ccccc2C(c2ccccc2)=NC1NCc1ccc(C(F)(F)F)cc1 (stereo not drawn) [Example 49, 5-Phenyl-3-(4-trifluoromethyl-benzylamino)-1,3-dihydro-benzo[e][1,4]diazepin-2-one] | 50 µM | 
9 | O=C1Nc2ccccc2C(c2ccccc2)=NC1NCc1ccco1 (stereo not drawn) [Example 50, 3-[(Furan-2-ylmethyl)-amino]-5-phenyl-1,3-dihydro-benzo[e][1,4]diazepin-2-one] | 50 µM | 
10 | CC(=O)NC1N=C(c2ccccc2)c2cc(Cl)ccc2NC1=O (stereo not drawn) [Example 51, N-(7-Chloro-2-oxo-5-phenyl-2,3-dihydro-1H-benzo[e][1,4]diazepin-3-yl)-acetamide] | 5 µM | 
11 | CC(C)C(=O)NC1N=C(c2ccccc2)c2cc(Cl)ccc2NC1=O (stereo not drawn) [Example 52, N-(7-Chloro-2-oxo-5-phenyl-2,3-dihydro-1H-benzo[e][1,4]diazepin-3-yl)-isobutyramide] | 3 µM | 
12 | CS(=O)(=O)NC1N=C(c2ccccc2)c2cc(Cl)ccc2NC1=O (stereo not drawn) [Example 53, N-(7-Chloro-2-oxo-5-phenyl-2,3-dihydro-1H-benzo[e][1,4]diazepin-3-yl)-methanesulformide] |  | IC50 ([2]; Table 1, read-out: XTT IC50): 5 µM
13 | O=C(NC1N=C(c2ccccc2)c2cc(Cl)ccc2NC1=O)c1ccco1 (stereo not drawn) [Example 54, Furan-2-carboxylic acid (7-chloro-2-oxo-5-phenyl-2,3-dihydro-1H-benzo[e][1,4]diazepin-3-yl)-amide] | 1.5 µM | 
14 | O=C(NC1N=C(c2ccccc2)c2cc(Cl)ccc2NC1=O)c1cccs1 (stereo not drawn) [Example 55, Thiophene-2-carboxylic acid (7-chloro-2-oxo-5-phenyl-2,3-dihydro-1H-benzo[e][1,4]diazepin-3-yl)-amide] | 3 µM | 
15 | O=C(NC1N=C(c2ccccc2)c2cc(Cl)ccc2NC1=O)C1CCCCC1 (stereo not drawn) [Example 56, Cyclohexanecarboxylic acid (7-Chloro-2-oxo-5-phenyl-2,3-dihydro-1H-benzo[e][1,4]diazepin-3-yl)-amide] | 5 µM | 
16 | COc1ccccc1C(=O)NC1N=C(c2ccccc2)c2cc(Cl)ccc2NC1=O (stereo not drawn) [Example 57, N-(7-Chloro-2-oxo-5-phenyl-2,3-dihydro-1H-benzo[e][1,4]diazepin-3-yl)-2-methoxy-benzamide] | 0.7 µM | 
17 | COc1ccc(C(=O)NC2N=C(c3ccccc3)c3cc(Cl)ccc3NC2=O)cc1 (stereo not drawn) [Example 58, N-(7-Chloro-2-oxo-5-phenyl-2,3-dihydro-1H-benzo[e][1,4]diazepin-3-yl)-4-methoxy-benzamide] | 1.2 µM | 

Row | Compound | IC50 [2, 3] | also measured
18 | O=C(NC1N=C(c2ccccc2)c2cc(Cl)ccc2NC1=O)c1ccccc1[N+](=O)[O-] (stereo not drawn) [Example 59, N-(7-Chloro-2-oxo-5-phenyl-2,3-dihydro-1H-benzo[e][1,4]diazepin-3-yl)-2-nitro-benzamide] | 5 µM | 
19 | COc1ccccc1CC(=O)NC1N=C(c2ccccc2)c2ccccc2NC1=O (stereo not drawn) [Example 60, 2-(2-Methoxy-phenyl)-N-(2-oxo-5-phenyl-2,3-dihydro-1H-benzo[e][1,4]diazepin-3-yl)-acetamide] | 5 µM | 
20 | COc1cccc(CC(=O)NC2N=C(c3ccccc3)c3ccccc3NC2=O)c1 (stereo not drawn) [Example 61, 2-(3-Methoxy-phenyl)-N-(2-oxo-5-phenyl-2,3-dihydro-1H-benzo[e][1,4]diazepin-3-yl)-acetamide] | 3 µM | 
21 | COc1ccc(CC(=O)NC2N=C(c3ccccc3)c3ccccc3NC2=O)cc1 (stereo not drawn) [Example 62, 2-(4-Methoxy-phenyl)-N-(2-oxo-5-phenyl-2,3-dihydro-1H-benzo[e][1,4]diazepin-3-yl)-acetamide] | 1.5 µM | 
22 | O=C(Cc1ccc([N+](=O)[O-])cc1)NC1N=C(c2ccccc2)c2ccccc2NC1=O (stereo not drawn) [Example 63, 2-(4-Nitro-phenyl)-N-(2-oxo-5-phenyl-2,3-dihydro-1H-benzo[e][1,4]diazepin-3-yl)-acetamide] | 1.7 µM | 
23 | O=C(Cc1cccc([N+](=O)[O-])c1)NC1N=C(c2ccccc2)c2ccccc2NC1=O (stereo not drawn) [Example 64, 2-(3-Nitro-phenyl)-N-(2-oxo-5-phenyl-2,3-dihydro-1H-benzo[e][1,4]diazepin-3-yl)-acetamide] | 1 µM | 
24 | O=C(Cc1ccccc1C(F)(F)F)NC1N=C(c2ccccc2)c2ccccc2NC1=O (stereo not drawn) [Example 65, N-(2-Oxo-5-phenyl-2,3-dihydro-1H-benzo[e][1,4]diazepin-3-yl)-2-(2-trifluoromethyl-phenyl)-acetamide] | 2 µM | 
25 | O=C(Cc1cccc(C(F)(F)F)c1)NC1N=C(c2ccccc2)c2ccccc2NC1=O (stereo not drawn) [Example 66, N-(2-Oxo-5-phenyl-2,3-dihydro-1H-benzo[e][1,4]diazepin-3-yl)-2-(3-trifluoromethyl-phenyl)-acetamide] | 1.5 µM | 
26 | O=C(Cc1ccc(C(F)(F)F)cc1)NC1N=C(c2ccccc2)c2ccccc2NC1=O (stereo not drawn) [Example 67, N-(2-Oxo-5-phenyl-2,3-dihydro-1H-benzo[e][1,4]diazepin-3-yl)-2-(4-trifluoromethyl-phenyl)-acetamide] | 1.5 µM | 
27 | COc1ccccc1NC(=O)NC1N=C(c2ccccc2)c2ccccc2NC1=O (stereo not drawn) [Example 68, (2-Methoxy-phenyl)-3-(2-oxo-5-phenyl-2,3-dihydro-1H-benzo[e][1,4]diazepin-3-yl)-urea] |  | IC50 ([2]; Table 1, read-out: XTT IC50): 1 µM
28 | O=C(Nc1ccccc1[N+](=O)[O-])NC1N=C(c2ccccc2)c2ccccc2NC1=O (stereo not drawn) [Example 69, 1-(2-Nitro-phenyl)-3-(2-oxo-5-phenyl-2,3-dihydro-1H-benzo[e][1,4]diazepin-3-yl)-urea] | 1.5 µM | 
29 | O=C(Nc1ccccc1Cl)NC1N=C(c2ccccc2)c2ccccc2NC1=O (stereo not drawn) [Example 70, 1-(2-Chloro-phenyl)-3-(2-oxo-5-phenyl-2,3-dihydro-1H-benzo[e][1,4]diazepin-3-yl)-urea] | 1.5 µM | 
30 | O=C(Nc1ccc(Cl)cc1)NC1N=C(c2ccccc2)c2ccccc2NC1=O (stereo not drawn) [Example 71, 1-(4-Chloro-phenyl)-3-(2-oxo-5-phenyl-2,3-dihydro-1H-benzo[e][1,4]diazepin-3-yl)-urea] |  | IC50 ([2]; human respiratory syncytial virus, 144 h, Table 1, read-out: XTT IC50): 3 µM
31 | Cc1ccc(NC(=O)NC2N=C(c3ccccc3)c3ccccc3NC2=O)cc1 (stereo not drawn) [Example 72, 1-(2-oxo-5-phenyl-2,3-dihydro-1H-benzo[e][1,4]diazepin-3-yl)-3-p-tolyl-urea] | 1.5 µM | 
32 | O=C(Nc1ccccc1F)NC1N=C(c2ccccc2)c2ccccc2NC1=O (stereo not drawn) [Example 73a, 1-(2-Fluoro-phenyl)-3-(2-oxo-5-phenyl-2,3-dihydro-1H-benzo[e][1,4]diazepin-3-yl)-urea] | 1 µM | 
33 | O=C(Nc1ccccc1F)N[C@H]1N=C(c2ccccc2)c2ccccc2NC1=O [Example 73b, (S)-1-(2-Fluoro-phenyl)-3-(2-oxo-5-phenyl-2,3-dihydro-1H-benzo[e][1,4]diazepin-3-yl)-urea] | 0.7 µM | 
34 | O=C(Nc1ccc(F)cc1)NC1N=C(c2ccccc2)c2ccccc2NC1=O (stereo not drawn) [Example 74, 1-(4-Fluoro-phenyl)-3-(2-oxo-5-phenyl-2,3-dihydro-1H-benzo[e][1,4]diazepin-3-yl)-urea] | 1.5 µM | 
